Data reported in patent US8329643B2, “PIMAP39 modulates LPS-induced inflammatory response” (Trustees of Boston University, priority 2008, dated 2012).
Entries after “also recorded” stand apart in the source; their conditions may differ. No end group written: not given here.

Assays:
[1] = tested on: LPS-induced endotoxic shock; assay: Endotoxic shock assay: survival of mice after lethal dose of LPS + D-Gal; assay type: in vivo, mouse; details: lethal dose LPS + control peptide
Method: (§1) (A) Weight-matched wild-type mice (n=15) were injected intraperitoneal (i.p.) with a lethal dose of LPS (1 mg D-Gal+12.5 ng LPS per gram body weight) followed immediately by tail vein injection of DMSO (black line), 40 µg/g SCpep as control (green line) or […] PIMAP39 (red line). The treated mice were monitored for their behavior and mortality every hour. The survival time of each treated mouse was graphed. […] (B) Blood was collected every 2 hours post injection for a total duration of 6 hours. Mice were warmed under heating lamps to promote blood flow and a small incision was made on the tail. About 10-50 μl of blood was collected per animal at each time point (2, 4 or 6 hours). […] Pooled plasma samples from the mice within each group were measured in triplets by ELISA (Abraxis) to see the effects of PIMAP39 on TNF-α production. ELISA immunoreactivity was quantitated using a microplate reader (Bio-Rad) and the results from the 6 hr mark were graphed (only the data for LPS+DMSO and LPS+PIMAP39 are presented here due to the similarity between LPS+DMSO and LPS+SCepetide). […]
(§2) To investigate how PIMAP39 mediates endotoxic shock, 3 month old, weight matched mice were treated with a lethal dose of LPS (12.5 ng LPS+1 mg D-Gal per gram body weight) followed immediately by a tail vein injection of PIMAP39 or controls. The treated mice were monitored for their behavior and mortality every hour. […]

TNF-α = assay: Plasma TNF-α by ELISA in the endotoxic shock assay; assay type: in vivo, mouse; details: 6 hr mark
Method: as §1, §2

[2] = tested on: white blood cells within the liver sections; assay: Fluorescence microscopy detection of FITC-labeled PIMAP39 in mouse liver sections after tail vein injection; assay type: in vivo; details: 1 mg FITC-PIMAP39 by tail vein injection, one hour post injection, vs DMSO alone
Method: Macrophage samples: Cells (5×10^3) from 3 month old mice were seeded over cover slips (22 mm) in 6-well plates and were treated with 500 ng/ml FITC-PIMAP39 (B) or DMSO alone (A) and continuously incubated overnight. Cover slips were removed and cells were stained with 50 nM LysoTracker Red DND-99 (Invitrogen) for 1.5 hours and then air-dried. Tissue section samples: Mice were treated with 1 mg of FITC-PIMAP39 (E, F) or DMSO alone as control (C, D), by tail vein injection as described. One hour post injection mice were sacrificed and their livers were harvested. Harvested livers were set in uniform orientations in molds using Histoprep™ (Fisher). 10 μm thick cross-sections were cut and transferred with a paintbrush to glass slides followed by H & E staining. Cross-sections were made at −24° C. using an HM505E cryostat (Microm). Both the treated cells and sections above were exposed to visible light for structural identification (C & E) and fluorescent light for signal location (A, B, D & F) by Olympus BX40 microscope at 200× (A & B) or 1000× (C-F) magnification and photographed. The FITC-PIMAP39-induced fluorescent signal in some macrophages (B) or in the leukocytes within the veins of the liver (F) was observed. The images were taken with a MicroFIRE camera under exposure time (1 second for fluorescent light, 30 second for visible light). […]

Row | Sequence | time at which deaths occurred [1] [h] | time at which most mice became sick [1] [h] | plasma TNF-α compared with LPS+DMSO (TNF-α) | presence / uptake of peptide in white blood cells in vivo (liver sections, fluorescent signal) [2]
1 | VTGKLTDTEVVTAYVIDEPKYVCRVTGK [SCpep] | 6 to 8 | 3 to 4 | similarity | –
2 | KYGATTVVRVCEVTYDKTPLEKDGITVV [PIMAP39] | – | – | – | cell permeable; also recorded: taken up
